Results taken from US20020019536A1, “NEW URETHANES, THIO AND DITHIO ANALOGUES AND THEIR USE AS INHIBITORS OF CHOLESTEROL BIOSYNTHESIS” (priority 1997, published 2002).
Converted amounts (≈) assume the structure as drawn.

Experiments:
[1] = target: T1, 2,3-epoxysqualene-lanosterol-cyclase (Rattus norvegicus, UniProt P48450); test: In-vivo activity in the rat after oral administration: 2,3-epoxysqualene level in the liver
T1 construct: Measuring the in-vivo Activity in the Rat after Oral Administration; from tissue; host or cells: living rat; 2,3-epoxysqualene measured in the liver
T1 sequence (P48450 1-733): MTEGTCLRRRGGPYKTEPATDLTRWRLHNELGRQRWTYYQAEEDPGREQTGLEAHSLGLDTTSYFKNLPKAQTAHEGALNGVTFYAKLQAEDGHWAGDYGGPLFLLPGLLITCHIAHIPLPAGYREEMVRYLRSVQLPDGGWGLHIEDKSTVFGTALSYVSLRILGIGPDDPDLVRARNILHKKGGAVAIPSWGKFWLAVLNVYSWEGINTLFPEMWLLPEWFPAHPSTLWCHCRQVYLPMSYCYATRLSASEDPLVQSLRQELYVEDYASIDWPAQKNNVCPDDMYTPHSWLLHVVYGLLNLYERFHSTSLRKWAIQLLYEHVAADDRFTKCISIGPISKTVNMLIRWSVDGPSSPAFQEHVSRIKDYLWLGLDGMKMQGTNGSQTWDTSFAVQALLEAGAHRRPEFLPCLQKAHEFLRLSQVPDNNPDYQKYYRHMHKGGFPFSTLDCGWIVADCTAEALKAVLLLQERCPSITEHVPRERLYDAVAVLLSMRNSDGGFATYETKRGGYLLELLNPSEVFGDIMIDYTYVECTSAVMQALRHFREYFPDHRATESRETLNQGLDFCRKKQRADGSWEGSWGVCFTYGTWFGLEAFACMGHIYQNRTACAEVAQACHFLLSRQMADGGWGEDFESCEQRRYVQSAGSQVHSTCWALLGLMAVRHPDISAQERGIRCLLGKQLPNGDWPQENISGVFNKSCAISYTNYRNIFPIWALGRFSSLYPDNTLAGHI
Experimental: II. Measuring the in-vivo Activity in the Rat after Oral Administration
Inhibiting the enzyme 2,3-epoxysqualene-lanosterol-cyclase causes an increase in the 2,3-epoxisqualene levels in the liver and plasma. The quantity of 2,3-epoxysqualene formed therefore serves as a direct measurement of the potency on the animal as a whole. The amounts were determined using the method described in J. Lipid. Res. 38, 564-575, [1997] at t=3 or 8 hours after administration of the substance in concentrations of c=0.01, 0.03, 0.1, 0.3 and 1.0 mg/kg. Table 3 which follows gives the results obtained for the abovementioned substances A, B, C, E, G, H, O and R by way of example.
In the control animals there were no measurable 2,3-epoxisqualene levels under these conditions.

[2] = tested on: Trich. mentagrophytes ATCC 9129; test: Fungistatic activity, series dilution test; type: cell-based; settings: Sabouraud broth, 2 to 4 days at 26° C.
Experimental: (§1) V. Determining the Fungistatic Activity
(§2) The fungistatic activity was determined by the series dilution test (microtitre system). Sabouraud broth was used as the nutrient medium. The inoculum amounted to about 10^4 to 10^5 CFU/ml (CFU=colony-forming units); the incubation period was 2 to 4 days at 26° C.
(§3) The lowest concentration which allows no visible growth (minimum inhibitory concentration MIC) was determined.
(§4) The abovementioned compounds B, E, G, I, K, L, N, Q and R were tested. The MIC is given in μg/ml.

Pen. notatum CBS 19746 = test: Fungistatic activity, series dilution test; type: cell-based; settings: Sabouraud broth, 2 to 4 days at 26° C.
Experimental: as §1, §2, §3, §4

Rhod. rubra 49 = test: Fungistatic activity, series dilution test; type: cell-based; settings: Sabouraud broth, 2 to 4 days at 26° C.
Experimental: as §1, §2, §3, §4

[3] = tested on: Sacch. carisbergensis ATCC 9080; test: Fungistatic activity, series dilution test; type: cell-based; settings: Sabouraud broth, 2 to 4 days at 26° C.
Experimental: as §1, §2, §3, §4

[4] = tested on: Cand. albicans ATCC 10231; test: Fungistatic activity, series dilution test; type: cell-based; settings: Sabouraud broth, 2 to 4 days at 26° C.
Experimental: as §1, §2, §3, §4

Asp. niger ATCC 16404 = test: Fungistatic activity, series dilution test; type: cell-based; settings: Sabouraud broth, 2 to 4 days at 26° C.
Experimental: as §1, §2, §3, §4

[5] = tested on: 14C-acetate incorporation into the steroids which can be precipitated with digitonin (cholesterol biosynthesis); test: Inhibition of 14C-acetate incorporation into the steroids which can be precipitated with digitonin; type: cell-based; settings: for IC50: 14C-acetate incorporation
Text: I. Measuring the Inhibition of ^14C-acetate incorporation into the steroids which can be precipitated with digitonin: The inhibitory effect was investigated using the method described in J. Lipid. Res. 37, 148-157 [1996] at test concentrations of 10^−8 and 10^−9 mol/l.

[6] = Lipid reduction in the normolipaemic golden hamster; type: in vivo; settings: compared with control group
Experimental: III. Lipid Reduction in the Normolipaemic Golden Hamster This was determined using the method described in J. Lipid. Res. 38, 564-575, (1997). At the end of the experiment the total cholesterol, β-lipoprotein-cholesterol and HDL-cholesterol were determined and compared with the values of a control group which were fed without any test substance. The lipid-lowering activity of the abovementioned compounds E, G and I was tested.

[7] = 0.03 mg/kg oral, 3 h after administration
[8] = 0.03 mg/kg oral, 8 h after administration
[9] = 0.1 mg/kg oral, 3 h after administration
[10] = 0.1 mg/kg oral, 8 h after administration
[11] = 0.3 mg/kg oral, 3 h after administration
[12] = 0.3 mg/kg oral, 8 h after administration
[13] = 0.01 mg/kg oral, 3 h after administration
[14] = 0.01 mg/kg oral, 8 h after administration

| 2,3-epoxysqualene concentration in the liver (rat) [1, 7] | 2,3-epoxysqualene concentration in the liver (rat) [1, 8] | 2,3-epoxysqualene concentration in the liver (rat) [1, 9] | 2,3-epoxysqualene concentration in the liver (rat) [1, 10] | 2,3-epoxysqualene concentration in the liver (rat) [1, 11] | 2,3-epoxysqualene concentration in the liver (rat) [1, 12] | Compound | MIC Trich. [2] | MIC Pen. (Pen. notatum CBS 19746) | MIC Rhod. (Rhod. rubra 49) | MIC Sacc. [3] | MIC Cand. [4] | MIC Asp. (Asp. niger ATCC 16404) | percentage inhibition of 14C-acetate incorporation ([5]; test concentration 10^−8 mol/l) | percentage inhibition of 14C-acetate incorporation ([5]; test concentration 10^−9 mol/l) | 2,3-epoxysqualene concentration in the liver (rat) [1, 13] | 2,3-epoxysqualene concentration in the liver (rat) [1, 14] | IC50 [5] | other results |
| --- | --- | --- | --- | --- | --- | --- | --- | --- | --- | --- | --- | --- | --- | --- | --- | --- | --- | --- |
| 24.5 µg/g | 57.1 µg/g | 96.0 µg/g | 150.9 µg/g | 98.5 µg/g | 234.5 µg/g | CN(C)Cc1ccc([C@H]2CC[C@H](N(C)C(=S)SCc3cccc(F)c3)CC2)cc1.Cl [B, trans-S-(3-fluorobenzyl)-N-4-[4-(dimethylaminomethyl)-phenyl]cyclohexyl-N-methyldithiocarbamate-hydrochloride] | 1 µg/mL | 2 µg/mL | 2 µg/mL | 8 µg/mL | 2 µg/mL | 2 µg/mL | −85% | −59% | – | – | – | – |
| 12.8 µg/g | 42.3 µg/g | 66.2 µg/g | 115.3 µg/g | 57.5 µg/g | 225.5 µg/g | CN(C)Cc1ccc([C@H]2CC[C@H](N(C)C(=S)Oc3ccc(Cl)cc3)CC2)cc1.Cl [G, trans-O-(4-chlorophenyl)-N-4-[4-(dimethylaminomethyl)-phenyl]cyclohexyl-N-methylthiocarbamate-hydrochloride] | 1 µg/mL | 1 µg/mL | 8 µg/mL | 32 µg/mL | 4 µg/mL | 4 µg/mL | −85% | −43% | 5.2 µg/g | 30.1 µg/g | 0.4 nM | HDL-cholesterol ([6]; dose 0.5 mg/kg/day): −21.1%; Total cholesterol ([6]; dose 0.5 mg/kg/day): −27.7%; β-Lipoprotein-cholesterol ([6]; dose 0.5 mg/kg/day): −40.2%; HDL-cholesterol ([6]; dose 1.5 mg/kg/day): −26.5%; Total cholesterol ([6]; dose 1.5 mg/kg/day): −31.1%; β-Lipoprotein-cholesterol ([6]; dose 1.5 mg/kg/day): −42.2%; HDL-cholesterol ([6]; dose 4.9 mg/kg/day): −24.3%; Total cholesterol ([6]; dose 4.9 mg/kg/day): −26.5%; β-Lipoprotein-cholesterol ([6]; dose 4.9 mg/kg/day): −33.2% |
| – | – | – | – | – | – | CN(C(=O)Oc1ccc(Cl)cc1)[C@H]1CC[C@H](c2ccc(CN3CCCCC3)cc2)CC1.Cl [I, trans-O-(4-chlorophenyl)-N-methyl-N-4-[4-(piperidinomethyl)phenyl]cyclohexylcarbamate-hydrochloride] | 8 µg/mL | 64 µg/mL | 64 µg/mL | 64 µg/mL | 64 µg/mL | 256 µg/mL | −83% | −43% | – | – | – | HDL-cholesterol ([6]; dose 0.46 mg/kg/day): −3.3%; Total cholesterol ([6]; dose 0.46 mg/kg/day): −16.1%; β-Lipoprotein-cholesterol ([6]; dose 0.46 mg/kg/day): −26.2%; HDL-cholesterol ([6]; dose 1.34 mg/kg/day): −5.0%; Total cholesterol ([6]; dose 1.34 mg/kg/day): −20.2%; β-Lipoprotein-cholesterol ([6]; dose 1.34 mg/kg/day): −33.7%; HDL-cholesterol ([6]; dose 4.89 mg/kg/day): −16.2%; Total cholesterol ([6]; dose 4.89 mg/kg/day): −25.7%; β-Lipoprotein-cholesterol ([6]; dose 4.89 mg/kg/day): −36.1% |
| – | – | – | – | – | – | C#CCN(C)Cc1ccc([C@H]2CC[C@H](N(C)C(=O)Oc3ccc(Cl)cc3)CC2)cc1 [N, trans-O-(4-chlorophenyl)-N-methyl-N-4-[4-(N-methyl-N-propargylaminomethyl)phenyl]cyclohexylcarbamate] | 8 µg/mL (≈ 18.8 µM) | 8 µg/mL (≈ 18.8 µM) | 16 µg/mL (≈ 37.6 µM) | 64 µg/mL (≈ 151 µM) | 8 µg/mL (≈ 18.8 µM) | >512 µg/mL | −90% | −75% | – | – | – | – |
| – | – | – | – | – | – | Cc1ccc(OC(=S)N(C)[C@H]2CC[C@H](c3ccc(CN4CCCCC4)cc3)CC2)cc1.Cl [Q, trans-N-Methyl-O-(4-methylphenyl)-N-4-[4-(piperidinomethyl)phenyl]cyclohexylthiocarbamate-hydrochloride] | 2 µg/mL | 64 µg/mL | 8 µg/mL | 32 µg/mL | 16 µg/mL | 128 µg/mL | −79% | −51% | – | – | – | – |

| Compound | 2,3-epoxysqualene concentration in the liver (rat) [1, 7] | 2,3-epoxysqualene concentration in the liver (rat) [1, 8] | 2,3-epoxysqualene concentration in the liver (rat) [1, 9] | 2,3-epoxysqualene concentration in the liver (rat) [1, 10] | 2,3-epoxysqualene concentration in the liver (rat) [1, 11] | 2,3-epoxysqualene concentration in the liver (rat) [1, 12] | MIC Trich. [2] | MIC Pen. (Pen. notatum CBS 19746) | MIC Rhod. (Rhod. rubra 49) | MIC Sacc. [3] | MIC Cand. [4] | MIC Asp. (Asp. niger ATCC 16404) | percentage inhibition of 14C-acetate incorporation ([5]; test concentration 10^−8 mol/l) | percentage inhibition of 14C-acetate incorporation ([5]; test concentration 10^−9 mol/l) | 2,3-epoxysqualene concentration in the liver (rat) [1, 13] | 2,3-epoxysqualene concentration in the liver (rat) [1, 14] | IC50 [5] | other results |
| --- | --- | --- | --- | --- | --- | --- | --- | --- | --- | --- | --- | --- | --- | --- | --- | --- | --- | --- |
| CN(C)Cc1ccc([C@H]2CC[C@H](N(C)C(=O)Oc3ccc(F)cc3)CC2)cc1.Cl [R, trans-N-4-[4-(dimethylaminomethyl)phenyl]cyclohexyl-O-(4-fluorophenyl)-N-methylcarbamate-hydrochloride] | 38.2 µg/g | 67.2 µg/g | 53.8 µg/g | 152.9 µg/g | 79.7 µg/g | 191.0 µg/g | 2 µg/mL | 16 µg/mL | 16 µg/mL | 512 µg/mL | 64 µg/mL | 16 µg/mL | −86% | −63% | 5.1 µg/g | 25.6 µg/g | 0.5 nM | HDL-cholesterol ([6]; dose 1.73 mg/kg/day): −19.7%; Total cholesterol ([6]; dose 1.73 mg/kg/day): −16.5%; β-Lipoprotein-cholesterol ([6]; dose 1.73 mg/kg/day): −14.3%; HDL-cholesterol ([6]; dose 6.37 mg/kg/day): −20.0%; Total cholesterol ([6]; dose 6.37 mg/kg/day): −27.8%; β-Lipoprotein-cholesterol ([6]; dose 6.37 mg/kg/day): −34.3%; 2,3-epoxysqualene concentration in the liver (rat) ([1]; 1.0 mg/kg oral, 3 h after administration): 106.2 µg/g; 2,3-epoxysqualene concentration in the liver (rat) ([1]; 1.0 mg/kg oral, 8 h after administration): 340.0 µg/g |
